Details in all cases: Table 35
Assay [1] concerns the target RIP1 (Homo sapiens (Human), UniProt Q13546). Nature of the assay: KINOMEscan binding assay, RIP1.
Assay [2] concerns the target RIP3 (Homo sapiens (Human), UniProt Q9Y572). The assay is described as follows: KINOMEscan binding assay, RIP3. How it is done:
(§1) Kinase assays. For most assays, kinase-tagged T7 phage strains were grown in parallel in 24-well blocks in an E. coli host derived from the BL21 strain. E. coli were grown to log-phase and infected with T7 phage from a frozen stock (multiplicity of infection=0.4) and incubated with shaking at 32° C. until lysis (90-150 minutes).
(§2) The Hill Slope was set to −1.

Assay [3] concerns the target MLKL (full length) (Homo sapiens (Human), UniProt Q8NB16). Nature of the assay: KINOMEscan binding assay, MLKL (full length). How it is done: as §1, §2

Bounds are passed on as bounds.

RIP1, sequence (Q13546 whole entry): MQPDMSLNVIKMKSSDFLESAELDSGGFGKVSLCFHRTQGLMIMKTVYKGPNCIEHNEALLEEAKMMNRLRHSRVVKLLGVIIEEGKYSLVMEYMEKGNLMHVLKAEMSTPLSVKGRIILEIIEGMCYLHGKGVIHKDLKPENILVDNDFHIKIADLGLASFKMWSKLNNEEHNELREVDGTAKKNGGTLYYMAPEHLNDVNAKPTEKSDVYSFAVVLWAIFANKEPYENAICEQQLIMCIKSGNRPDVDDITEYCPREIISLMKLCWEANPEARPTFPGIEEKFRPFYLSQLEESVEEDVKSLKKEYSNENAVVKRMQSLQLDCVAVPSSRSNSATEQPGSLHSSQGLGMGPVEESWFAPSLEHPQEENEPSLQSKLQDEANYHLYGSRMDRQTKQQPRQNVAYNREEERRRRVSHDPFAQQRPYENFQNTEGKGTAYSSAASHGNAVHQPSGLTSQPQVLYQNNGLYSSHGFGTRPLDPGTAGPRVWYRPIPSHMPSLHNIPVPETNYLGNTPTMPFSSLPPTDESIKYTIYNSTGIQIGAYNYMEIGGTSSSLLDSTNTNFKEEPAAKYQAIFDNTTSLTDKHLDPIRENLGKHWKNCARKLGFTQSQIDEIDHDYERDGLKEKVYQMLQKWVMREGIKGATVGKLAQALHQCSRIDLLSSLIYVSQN
RIP3, sequence (Q9Y572 whole entry): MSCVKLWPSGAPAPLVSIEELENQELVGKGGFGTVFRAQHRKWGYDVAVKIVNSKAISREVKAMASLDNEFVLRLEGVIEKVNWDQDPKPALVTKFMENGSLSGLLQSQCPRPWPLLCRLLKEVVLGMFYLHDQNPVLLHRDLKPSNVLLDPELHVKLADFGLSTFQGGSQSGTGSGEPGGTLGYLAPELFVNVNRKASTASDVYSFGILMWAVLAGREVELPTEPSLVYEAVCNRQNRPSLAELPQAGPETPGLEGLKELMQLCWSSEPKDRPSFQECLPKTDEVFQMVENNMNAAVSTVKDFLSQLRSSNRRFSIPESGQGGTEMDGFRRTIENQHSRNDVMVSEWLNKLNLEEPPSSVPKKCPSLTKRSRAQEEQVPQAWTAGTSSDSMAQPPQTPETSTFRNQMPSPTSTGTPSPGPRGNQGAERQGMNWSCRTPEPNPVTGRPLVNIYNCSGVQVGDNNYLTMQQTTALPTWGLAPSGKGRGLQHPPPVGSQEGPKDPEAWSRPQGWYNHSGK
MLKL (full length), sequence (Q8NB16 whole entry): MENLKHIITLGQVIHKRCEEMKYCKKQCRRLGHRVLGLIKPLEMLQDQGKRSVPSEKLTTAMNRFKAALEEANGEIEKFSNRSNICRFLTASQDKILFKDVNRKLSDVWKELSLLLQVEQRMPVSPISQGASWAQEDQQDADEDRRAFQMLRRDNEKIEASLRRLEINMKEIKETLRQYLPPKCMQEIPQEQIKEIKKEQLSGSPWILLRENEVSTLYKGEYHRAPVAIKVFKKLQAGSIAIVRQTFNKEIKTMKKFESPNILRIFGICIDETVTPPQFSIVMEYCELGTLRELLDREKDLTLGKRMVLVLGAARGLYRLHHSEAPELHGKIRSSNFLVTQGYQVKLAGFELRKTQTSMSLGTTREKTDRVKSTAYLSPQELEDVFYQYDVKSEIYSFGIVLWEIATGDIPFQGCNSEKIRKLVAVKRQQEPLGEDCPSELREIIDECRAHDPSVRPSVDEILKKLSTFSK

For `NC(=O)c1c(-c2ccc(NS(=O)(=O)CC(F)(F)F)c(Oc3ccc(F)cc3)c2)n[nH]c1Nc1cccc(C(F)(F)F)n1` [Compound 148, 3-(3-(4-fluorophenoxy)-4-((2,2,2-trifluoroethyl)sulfonamido)phenyl)-5-((6-(trifluoromethyl)pyridine-2-yl)amino)-1H-pyrazole-4-carboxamide], the results for the Kd in assay [1], in assay [2] and in assay [3] were over 30 µM, over 30 µM and under 0.01 µM, respectively.
For the compound `CCS(=O)(=O)Nc1ccc(-c2n[nH]c(Nc3cccc(C(F)(F)F)n3)c2C(N)=O)cc1Oc1ccc(F)cc1` [Compound 149, 3-(4-(ethylsulfonamido)-3-(4-fluorophenoxy)phenyl)-5-((6-(trifluoromethyl)pyridine-2-yl)amino)-1H-pyrazole-4-carboxamide], the values for the Kd in assay [1], in assay [2] and in assay [3] were over 30 µM, over 30 µM and under 0.01 µM, respectively.
On to `NC(=O)c1c(-c2ccc(NS(=O)(=O)C(F)F)c(OCc3ccc(F)c(F)c3)c2)n[nH]c1Nc1cccc(C(F)(F)F)n1` [Compound 151, 3-(3-((3,4-difluorobenzyl)oxy)-4-((difluoromethyl)sulfonamido)phenyl)-5-((6-(trifluoromethyl)pyridine-2-yl)amino)-1H-pyrazole-4-carboxamide], for which the Kd in assay [1] was over 30 µM; in assay [2], over 30 µM; in assay [3], under 0.01 µM.
With `CCS(=O)(=O)Nc1ccc(-c2n[nH]c(Nc3cnccn3)c2C(N)=O)cc1OC1(c2ccccc2)CC1` [Compound 152, 3-(4-(ethylsulfonamido)-3-(1-phenylcyclopropoxy)phenyl)-5-(pyrazin-2-ylamino)-1H-pyrazole-4-carboxamide], the Kd in assay [1] was over 30 µM; in assay [2] it was over 30 µM; in assay [3] it was under 0.01 µM.
On to `NC(=O)c1c(-c2ccc(NS(=O)(=O)CC(F)(F)F)cc2)n[nH]c1Nc1ccc(C(F)(F)F)cn1` [Compound 153, 3-(4-((2,2,2-trifluoroethyl)sulfonamido)phenyl)-5-((5-(trifluoromethyl)pyridine-2-yl)amino)-1H-pyrazole-4-carboxamide], for which the values for the Kd in assay [1], in assay [2] and in assay [3] were over 30 µM, over 30 µM and under 0.01 µM, respectively.
Take `C[C@H](Oc1cc(-c2n[nH]c(Nc3ccccn3)c2C(N)=O)ccc1NS(=O)(=O)CC(F)(F)F)c1ccc(F)cc1` [Compound 154, (S)-3-(3-(1-(4-fluorophenyl)ethoxy)-4-((2,2,2-trifluoroethyl)sulfonamido)phenyl)-5-(pyridine-2-ylamino)-1H-pyrazole-4-carboxamide]: the Kd was over 30 µM in assay [1], over 30 µM in assay [2] and under 0.01 µM in assay [3].
For `Cc1cnc(Nc2[nH]nc(-c3ccc(NS(=O)(=O)CC(F)(F)F)c(OCc4ccc(F)c(Cl)c4)c3)c2C(N)=O)cn1` [Compound 155, 3-(3-((3-chloro-4-fluorobenzyl)oxy)-4-((2,2,2-trifluoroethyl)sulfonamido)phenyl)-5-((5-methylpyrazin-2-yl)amino)-1H-pyrazole-4-carboxamide], the figures for the Kd in assay [1], in assay [2] and in assay [3] were over 30 µM, over 30 µM and under 0.01 µM, respectively.
For `CCS(=O)(=O)Nc1ccc(-c2n[nH]c(Nc3cnccn3)c2C(N)=O)cc1OCc1ccc(F)cn1` [Compound 156, 3-(4-(ethylsulfonamido)-3-((5-fluoropyridin-2-yl)methoxy)phenyl)-5-(pyrazin-2-ylamino)-1H-pyrazole-4-carboxamide], the Kd in assay [1] was over 30 µM; in assay [2] it was over 30 µM; in assay [3], under 0.01 µM.
For `COc1cnc(Nc2[nH]nc(-c3ccc(NS(=O)(=O)CC(F)(F)F)c(OCc4ccc(Cl)cc4)c3)c2C(N)=O)cn1` [Compound 157, 3-(3-((4-chlorobenzyl)oxy)-4-((2,2,2-trifluoroethyl)sulfonamido)phenyl)-5-((5-methoxypyrazin-2-yl)amino)-1H-pyrazole-4-carboxamide], the Kd was over 30 µM in assay [1], over 30 µM in assay [2] and under 0.01 µM in assay [3].

As a reminder, the Kd is the constant that tells how readily two partners part at equilibrium.

Values taken from patent publication US20250074891A1 (Anaxis Pharma Pty Ltd., priority 2021, published 2025).
